From patent US20240182526A1, “COMPOSITIONS AND METHODS FOR MODULTING INFLAMMATORY AND DEGENERATIVE DISORDER” (University of Southern California, priority 2021, published 2024)
“Also recorded” adds a separate entry of the source.

How the values were obtained:
pSRC = assay: Western blot of pSRC in pig articular chondrocytes; assay type: cell-based; settings: pig articular chondrocytes, OSM, 4 and 24 hours
Method: (§1) For standard western blot, treated and non-treated cells were lysed in RIPA Lysis and Extraction Buffer (Pierce, Rockford, IL) containing protease inhibitors (Pierce) followed by sonication with a 15-second pulse at a power output of 2 using the VirSonic 100 (SP Industries Company, Warminster, PA). Protein concentrations were determined by BCA protein assay (Pierce). Proteins were resolved with SDS-PAGE utilizing 4-15% Mini-PROTEAN TGX Precast Gels and transferred to Trans-Blot Turbo Transfer Packs with a 0.2-μm pore-size nitrocellulose membrane. The SDS-PAGE running buffer, 4-15% Mini-PROTEAN TGX Precast Gels, Trans-Blot Turbo Transfer Packs with a 0.2-μm pore-size nitrocellulose membrane was purchased from Biorad (Hercules, CA). Nitrocellulose membranes were blocked in 5% nonfat milk in 0.05% (v/v) Tween 20 (PBST) (Corning, Manassas, VA). Membranes were then incubated with primary antibodies p-gp130 Y814 (Evseenko lab, AbClonal), p-AKT (cat #4060, Cell Signaling), p-ERK 1/2 (cat #9106, Cell Signaling), p-Y416-SRC (cat #1246F, Novus Biologicals), p-gp130 (cat #1453R, Bioss USA) and p-NFκBp65 (cat #8242, Cell Signaling), and/or YAP1 (cat #4912, Cell Signaling). Histone H3 (cat #9515, Cell Signaling) was used as loading control. After washing in PBS containing 0.05% (v/v) Tween 20 (PBST), membranes were incubated with rabbit (cat #31460, Thermo Scientific) or mouse IgG-HRP (cat #31430, Thermo Scientific) secondary antibodies. After washing, membranes were developed with the Clarity Western ECL Blotting Substrate (Hercules, CA). Quantification of blots was performed using ImageJ 1.44 followed by Prism9 for analysis.
The studies delineate that gp130 Y814 regulates SRC downstream signaling; since SRC is known to associate with gp130, it was hypothesized that gp130 and SRC are capable of physically interacting on Y814 and hindering this interaction will prevent SRC from signaling. In order to impede this interaction, experiments were performed using an innovative peptide library screen with short and overlapping peptides mimicking the motif of gp130 around Y814 that were individually tested for pSRC downregulation; these peptides ranged from 4-15 amino acids. The peptides contained a protein sequence stretch of consecutive amino acids surrounding gp130 Y814 residue. To test their efficacy, pig articular chondrocytes were stimulated with or without OSM in presence or absence of the peptides followed by co-immunoprecipitation to determine interaction and western blot detecting pSRC activity. […] Due to sequence specificity, the peptide is capable of discriminating among other gp130 regions serving as a competitive inhibitor.

pNF-κB p65 = assay: Western blot of pNF-κB p65 in pig articular chondrocytes; assay type: cell-based; settings: pig articular chondrocytes, OSM, 24 hours
Method: as §1

canine OA model = assay: Canine osteoarthritis model (medial meniscal release); assay type: in vivo, dog; settings: for histological (OARSI) scores of joint sections, matrix catabolism: intra-articular injections at post-operative weeks 4 and 11
Method: Single-cell sequencing using 10× Genomics. Single cell samples were prepared using Next GEM Single Cell 5′ v2 (dual index) and Chip Kit (10× Genomics) according to the manufacturer's protocol. Briefly samples were FACS sorted using DAPI to select live cells followed by resuspension in 0.04% BSA-PBS. Nearly 1200 cells/μl were added to each well of the chip with a target cell recovery estimate of 10000 cells. Thereafter Gel bead-in Emulsions (GEMs) were generated using GemCode Single-Cell Instrument. GEMs were reverse transcribed, droplets were broken and single stranded cDNA was isolated. cDNAs were cleaned up with DynaBeads and amplified. Finally, cDNAs were ligated with adapters, post-ligation products were amplified, cleaned-up with SPRIselect and purified libraries were sequenced on Novaseq.
10× Sequencing data analysis. Raw sequencing reads were processed using Partek Flow Analysis Software (build version 10.0.21.0210). Briefly, raw reads were checked for their quality, trimmed and reads with an average base quality score per position>30 were considered for alignment. Trimmed reads were aligned to the dog genome version canFam3-Ensembl_v102 using STAR-2.6.1d with default parameters. Reads with alignment percentage >75% were deduplicated based on their unique molecular identifiers (UMIs). Reads mapping to the same chromosomal location with duplicate UMIs were removed. Thereafter ‘Knee’ plot was constructed using the cumulative fraction of reads/UMIs for all barcodes. Barcodes […] the cut-off defined by the location of the knee were assigned as true cell barcodes and quantified. Further noise filtration was done by removing cells having >5% mitochondrial counts and total read counts >24,000. Genes not expressed in any cell were also removed as an additional clean-up step. Cleaned-up reads were normalized using counts per million (CPM) method followed by log-transformation generating count matrices for each sample. Samples were batch-corrected on the basis of expressed genes and mitochondrial reads percent. Count matrices were used to visualize and explore the samples in further details by generating tSNE plots, a non-linear dimensional reduction technique. This algorithm learns the underlying manifold of the data and places similar cells together in a low-dimensional space. Gene ontology enrichment analysis for the differentially expressed genes was performed using DAVID Gene Functional Classification Tool ([http://]david.abcc.ncifcrf.gov; version 6.8). Dot plots were generated in R (v4.0.3) using ggplot2(v3.3.3).
Immunohistochemistry. Histological staining for was performed on wild type (WT) mice, F814 mice and all mice that underwent destabilization of the medial meniscus (DMM). Six weeks after surgery, mice were sacrificed and joints were fixed in 10% formalin, decalcified in 10% EDTA and embedded in paraffin. For rat model, 6 weeks after partial medial meniscectomy (PMM), rats were sacrificed and joints were fixed in 10% formalin, decalcified in 10% EDTA and embedded in paraffin. A total of three 8 μm thick sections were made at a 200 μm interval by coronal sectioning. For canine model, 4 and 16 weeks after medial meniscal release (MMR), dogs were sacrificed and joints were fixed in 10% formalin, decalcified in 10% EDTA and embedded in paraffin. No animals were excluded from analysis. A microtome (Leica) was used to cut 5-μm sections for joints. H&E staining was performed to assess morphology. Safranin O/Fast Green staining, immunohistochemistry for proteolytic enzymes and Osteoarthritis Research Society International (OARSI) scoring was performed as described (41, 42). For OARSI scoring, observers performing the analysis were blinded as whether the slides were from treated or control animals. The stained samples were visually observed using LSCM (Zeiss LSM710, Carl Zeiss, Germany).
Canine osteoarthritis model. […]

## Cc1ccc(-c2csc(NC(=O)c3ccccn3)n2)cc1 [Peptide R805]
pSRC
  protein levels of pSRC after OSM stimulation: markedly suppressed; also recorded: prevents pro-inflammatory signaling in OSM-stimulated pig articular chondrocytes
pNF-κB p65
  protein levels of pNF-κB p65 after OSM stimulation: markedly suppressed
Canine OA model; 0.1 μg dose group (as in saline group)
  histological abnormalities of cartilage: focal partial- and full thickness cartilage erosions
Canine OA model; 10 ug and 1 ug doses
  cortical outline of the medial tibial plateau: almost no change in the cortical outline
Canine OA model; 10 and 1 μg groups
  bone mineral density (sclerosis) in medial compartment of the operated stifle, microCT: consistent absence of sclerosis
Canine OA model; R805-treated vs control dogs
  scRNA-seq of synoviocytes: joint inflammatory milieu: biases the joint environment away from a chronic inflammatory identity following injury; also recorded: promotes an anti-inflammatory, anti-fibrotic milieu in an injured joint
Canine OA model; canine OA model
  knee joint shape change from baseline (serial CT): clearly controlled; also recorded: dose-dependent reduction in ectopic bone formation
  pain (Colorado Pain Scores): minimal pain
  subchondral sclerosis / BMD in the contralateral, non-operated knee: did not develop subchondral sclerosis in the contralateral knee; also recorded: increased with decreasing dose of R805
Canine OA model; canine OA model, listed as CX-011
  pain (Colorado Pain Scores): profound effect on alleviating pain
Canine OA model; high and middle dose groups
  synovial membrane inflammation: mild intimal hypertrophy with occasional subintimal mononuclear cell infiltration; also recorded: reduced by mid and high doses of R805
Canine OA model; high dose group
  lameness scores: minimal pain (FIG. 5E) and lameness
Canine OA model
  histological (OARSI) scores of joint sections, matrix catabolism: dramatically reduces the appearance of OA in rat and canine models; also recorded: incremental improvement in the histological scores as the R805 dose increased
Canine OA model; listed as CX-011
  histological (OARSI) scores of joint sections, matrix catabolism: profound effect on alleviating pain and matrix catabolism
Canine OA model; low dose (as in saline treated dogs)
  synovial membrane inflammation: profound increase in subintimal vasculature, new connective tissue and cellular infiltrate
